Values of other authors as cited in paper PMC8763792, “Pharmacokinetic/Pharmacodynamic Based Breakpoints of Polymyxin B for Bloodstream Infections Caused by Multidrug-Resistant Gram-Negative Pathogens” (Frontiers in Pharmacology, 2022).
Read-outs that look alike come from different tables or passages of the source. Positions of bridges follow the written chain, without caps; N, C: chain ends. Non-standard residues stand in square brackets, D forms with d. Residues, ends and D or L forms follow the SMILES beside them. *: point of attachment. X1 = CC[C@H](C)CCCCC(=O)*; Dab = NCC[C@H](N)C(=O)O

Key:
[1] = system: P. aeruginosa; details: 7,107 isolates, 45 nations, 1997-2016; ref Diekema et al., 2019
Description: (§1) However, the success of this regimen will depend on regional susceptibility data. According to the SENTRY antimicrobial surveillance program for bloodstream infections (data collected from 45 nations including China between 1997 and 2016) ([Diekema et al., 2019]), the MIC90 of colistin for P. aeruginosa (7,107 isolates), A. baumannii or A. calcoaceticus ...

[2] = system: Enterobacteriaceae; details: 54,476 isolates, 45 nations, 1997-2016; ref Diekema et al., 2019
Description: as §1

[3] = system: A. baumannii or A. calcoaceticus; details: 3,124 isolates, 45 nations, 1997-2016; ref Diekema et al., 2019
Description: as §1

[4] = critically-ill patients, ref Sandri et al., 2013, Nation et al., 2017
Protocol: Removal of the “susceptible” interpretation category for polymyxins by CLSI was driven primarily by lung infection data ([He et al., 2013]; [Landersdorfer et al., 2018]). […] For bloodstream infections, the average steady-state concentrations (C ss,avg) achieved with intravenously administered polymyxin B (0.45–3.38 mg/kg/day) or CMS (2–18 MIU/day) are 2–3 mg/L (polymyxin B and colistin) in critically-ill p ...

[5] = system: K. pneumoniae; details: dash in Table S1 explained, ref Landersdorfer, C.B., 2018
Description: Supplement DataSheet1.zip/Table 1.DOCX, table 1: Table S1.

[6] = Protocol: The area under the unbound concentration-time curve over 24 h to the MIC ratio (fAUC0–24h/MIC) is the most predictive PK/PD index for polymyxins ([Tam et al., 2005]; [Bergen et al., 2008]; [Bergen et al., 2010]; [Cheah et al., 2015]; [Landersdorfer et al., 2018]). PK/PD targets of 1-log10 CFU and 2-log10 CFU reductions in colony forming units (CFU)/thigh were derived from dose-fractionation studies of polymyxin B (K. pneumoniae) and colistin (P. aeruginosa and A. baumannii) in murine thigh infection models (Supplementary Table S1; [Cheah et al., 2015]; [Landersdorfer et al., 2018]). Given poly ... || The recommended dose of intravenously administered polymyxin B throughout much of the world is 1.5–2.5 mg/kg/day with a loading dose of 2–2.5 mg/kg ([Tsuji et al., 2019]). In China, the only brand of polymyxin B currently available has a recommended intravenous dose of 50–100 mg/day (Polymyxin B for injection ([Daily Med, 2017]), equivalent to 0.83–1.66 mg/kg/day (0.42–0.83 mg/kg/12 h) for a 60 kg patient. Importantly, [Lakota et al. (2018)] proposed that for pathogens with MICs ≤2 mg/L, the target AUC0–24h,ss for polymyxin B should be 50–100 mg h/L. In our study, the polymyxin B AUC0–24h,ss a ...
[7] = system: extensively-drug resistant Gram-negative bacteria; details: polymyxin B-based regimens 100-200 mg/day, ≥5 days; bloodstream infection; ref Zhao et al., 2020
Description: This is in agreement with othe ...

Compound	MIC90 [1]	MIC90 [2]	MIC90 [3]	Average steady-state concentration (Css,avg) ([4]; colistin after intravenous CMS 2-18 MIU/day)	PK/PD target fAUC0-24h/MIC, 2-log10 CFU killing [5]	Unbound fraction (f) in plasma ([6]; plasma, ref Sandri et al., 2013)	Protein binding ([6]; ref Zavascki et al., 2008)	Average steady-state concentration (Css,avg) ([4]; intravenous polymyxin B 0.45-3.38 mg/kg/day)	28-day all-cause mortality [7]	Clearance rate of microorganisms [7]	Overall effectiveness (cure or improvement) [7]
colistin	2 µg/mL	> 4 µg/mL	2 µg/mL	2000 to 3000 ng/mL							
CC[C@H](C)CCCCC(=O)N[C@@H](CCN)C(=O)N[C@H](C(=O)N[C@@H](CCN)C(=O)N[C@H]1CCNC(=O)[C@H]([C@@H](C)O)NC(=O)[C@H](CCN)NC(=O)[C@H](CCN)NC(=O)[C@H](CC(C)C)NC(=O)[C@@H](Cc2ccccc2)NC(=O)[C@H](CCN)NC1=O)[C@@H](C)O [polymyxin B] (X1-[Dab]T[Dab][Dab][Dab][dF]L[Dab][Dab]T; lactam 4-C (inferred); N-terminus assumed)					unable to produce a 2-log10 CFU decrease	42%	78.5–92.4%	2000 to 3000 ng/mL	41.0%	65.2%	59.0%
